What is called IC50 is the midpoint of a concentration-inhibition curve.

Three molecules from ChEMBL document CHEMBL3399969, “Multifunctional scutellarin-rivastigmine hybrids with cholinergic, antioxidant, biometal chelating and neuroprotective properties for the treatment of Alzheimer's disease” (Bioorg Med Chem, 2015) can be followed below.

Activity calls are given as the source filed them. The rule behind the calls is not given here.

One data set concerns the target T1, Acetylcholinesterase (Rattus norvegicus, UniProt P37136).
T1 sequence (P37136 whole entry): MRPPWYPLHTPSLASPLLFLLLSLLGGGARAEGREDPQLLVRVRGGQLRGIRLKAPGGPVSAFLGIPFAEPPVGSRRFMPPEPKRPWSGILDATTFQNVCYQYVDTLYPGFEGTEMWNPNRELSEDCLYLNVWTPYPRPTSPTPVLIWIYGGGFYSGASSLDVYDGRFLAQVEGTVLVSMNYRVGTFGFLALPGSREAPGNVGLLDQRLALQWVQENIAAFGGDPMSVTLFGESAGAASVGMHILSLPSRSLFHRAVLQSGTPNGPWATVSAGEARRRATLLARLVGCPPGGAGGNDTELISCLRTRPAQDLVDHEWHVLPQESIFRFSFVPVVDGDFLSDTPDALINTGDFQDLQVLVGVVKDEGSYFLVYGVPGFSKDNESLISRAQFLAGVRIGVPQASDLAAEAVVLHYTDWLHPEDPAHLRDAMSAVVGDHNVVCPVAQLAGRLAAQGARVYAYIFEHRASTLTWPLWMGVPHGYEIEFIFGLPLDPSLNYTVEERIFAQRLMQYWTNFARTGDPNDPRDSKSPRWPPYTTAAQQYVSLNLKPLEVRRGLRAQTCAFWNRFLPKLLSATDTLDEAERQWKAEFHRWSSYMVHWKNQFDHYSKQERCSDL
Put plainly: Inhibition of rat cortex AChE using acetylthiocholine iodide as substrate after 15 mins by Ellman method. For orientation: Ellman's reagent forms a yellow product with free thiols.

Data set [1] in a line: Inhibition of rat serum BuChE using butyrylthiocholine iodide as substrate after 15 mins by Ellman method. It is filed as cell-free.
For another data set, the species on record is Rattus norvegicus. Nature of the data set: Selectivity index, ratio of IC50 for rat serum BuChE to IC50 for rat cortex AChE. It is filed as cell-free.
Data set [2] can be described thus: Metal chelating activity of the compound assessed as Cu2+ complex formation after 30 mins by UV-Vis spectrometry. It is filed as physicochemical. The following applies: 0.5 h.
Data set [3] in a line: Metal chelating activity of the compound assessed as Zn2+ complex formation after 30 mins by UV-Vis spectrometry. It is filed as physicochemical. As to conditions: 0.5 h.
Data set [4] in a line: Metal chelating activity of the compound assessed as Al3+ complex formation after 30 mins by UV-Vis spectrometry. It is filed as physicochemical. The following applies: 0.5 h.
A short description of data set [5]: Metal chelating activity of the compound assessed as Fe2+ complex formation after 30 mins by UV-Vis spectrometry. The following applies: 0.5 h. It is filed as physicochemical.
Data set [6] can be described thus: Antioxidant activity assessed as trolox equivalent of […]-induced radical scavenging activity by ORAC-FL method. It is filed as physicochemical.
The next data set has as its system PC-12. Nature of the data set: Neuroprotective effect against H2O2-induced rat PC12 cell injury assessed as cell viability at 10 uM incubated for 2 hrs prior to H2O2 challenge measured after 24 hrs by MTT assay (reference value: 57.6%). It is filed as functional. As to conditions: read-out: Activity. (In general: Tetrazolium dyes change colour on reduction, which living cells bring about.)

Data set [7] has as its system Mus musculus. Put plainly: Cognitive enhancing effect in Kunming mouse assessed as inhibition of scopolamine-induced decreased spontaneous alternation behavior at 6 mg/kg after 30 mins by T-maze test. It is filed as functional. The arrangement: scale not given: the % may be the effect or the level left.
The test system of data set [8] is Mus musculus. Put plainly: Neuroprotective effect in Kunming mouse hippocampus assessed as reduction of scopolamine-induced vitality of AChE at 6 mg/kg by Ellman method. It is filed as functional.
In data set [9] the test system is Mus musculus. Put plainly: Neuroprotective effect in scopolamine-treated Kunming mouse hippocampus assessed as increase in vitality of ChAT at 6 mg/kg by Ellman method. It is filed as functional.
In data set [10] the target is Acetylcholinesterase (Electrophorus electricus) (UniProt O42275). Nature of the data set: Mixed-type inhibition of electric eel AChE using acetylthiocholine iodide as substrate at 0.5 to 1.5 uM after 15 mins by Lineweaver-Burk reciprocal plot analysis.
The subject of data set [11] is Mus musculus. Nature of the data set: Toxicity in Kunming mouse assessed as change in behavior at 6 mg/kg. It is filed as organism-based. The arrangement: dose 6 mg/kg. As to conditions: in vivo.
For data set [12], the system named is Mus musculus. Put plainly: Toxicity in Kunming mouse assessed as change in behavior at 2 to 8 mg/kg. It is filed as organism-based. The arrangement: dose 2-8 mg/kg. The following applies: in vivo.
For data set [13], the species on record is Mus musculus. Nature of the data set: Cognitive enhancing effect in Kunming mouse assessed as inhibition of scopolamine-induced decreased spontaneous alternation behavior after 30 mins by T-maze test. It is filed as functional, organism-based.
In data set [14] the test system is Mus musculus. Nature of the data set: Cognitive enhancing effect in Kunming mouse assessed as inhibition of scopolamine-induced decreased spontaneous alternation behavior at 8 mg/kg after 30 mins by T-maze test. Set-up: scale not given: the % may be the effect or the level left. It is filed as functional.
Data set [15] is filed under the species Mus musculus. Nature of the data set: Neuroprotective effect in Kunming mouse hippocampus assessed as reduction of scopolamine-induced vitality of AChE by Ellman method. It is filed as functional, organism-based.
Data set [16] has as its system Mus musculus. Nature of the data set: Neuroprotective effect in Kunming mouse hippocampus assessed as reduction of scopolamine-induced vitality of AChE at 8 mg/kg by Ellman method. It is filed as functional.
For data set [17], the species on record is Mus musculus. Nature of the data set: Neuroprotective effect in scopolamine-treated Kunming mouse hippocampus assessed as increase in vitality of ChAT by Ellman method. It is filed as functional, organism-based.
For data set [18], the system named is Mus musculus. Nature of the data set: Neuroprotective effect in scopolamine-treated Kunming mouse hippocampus assessed as increase in vitality of ChAT at 8 mg/kg by Ellman method. It is filed as functional.

Sequence of Acetylcholinesterase (Electrophorus electricus) (O42275 24-633 limits assumed): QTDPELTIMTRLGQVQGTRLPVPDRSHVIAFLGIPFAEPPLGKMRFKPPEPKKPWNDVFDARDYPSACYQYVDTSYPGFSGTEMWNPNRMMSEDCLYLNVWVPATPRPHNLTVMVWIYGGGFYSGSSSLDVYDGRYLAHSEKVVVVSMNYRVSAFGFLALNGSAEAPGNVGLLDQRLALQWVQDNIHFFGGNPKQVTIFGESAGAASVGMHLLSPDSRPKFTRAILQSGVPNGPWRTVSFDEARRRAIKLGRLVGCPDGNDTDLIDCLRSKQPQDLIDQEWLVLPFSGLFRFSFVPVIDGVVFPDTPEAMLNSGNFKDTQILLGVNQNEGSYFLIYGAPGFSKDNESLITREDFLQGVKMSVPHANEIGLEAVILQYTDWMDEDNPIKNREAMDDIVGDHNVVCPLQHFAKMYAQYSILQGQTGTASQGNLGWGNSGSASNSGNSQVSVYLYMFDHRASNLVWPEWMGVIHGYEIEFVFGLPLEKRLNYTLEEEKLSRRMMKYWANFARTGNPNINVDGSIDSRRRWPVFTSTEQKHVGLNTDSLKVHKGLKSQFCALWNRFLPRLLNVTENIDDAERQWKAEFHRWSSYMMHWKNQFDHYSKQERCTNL

For the molecule `CCN(CC)C(=O)Oc1ccc(-c2cc(=O)c3c(OC)c(OC)c(OC)cc3o2)cc1`, the IC50 worked out at 340 nM on Acetylcholinesterase and 8.2 µM in data set [1]. Also, the Ratio IC50 in the data set filed under Rattus norvegicus is 24.1. For the same molecule, the Activity result in data set [2] is given as “Active”; in data set [3], “Active”; in data set [4], “Active”; in [5] it was “Active”; in [6], 0.36. Moreover, the viability at 10 µM with PC-12 was found to be 70.3%.
`CCN(C)C(=O)Oc1cccc([C@H](C)N(C)C)c1` [RIVASTIGMINE] yielded a half-maximal inhibitory concentration (IC50) in data set [1] of 1.4 µM. Further, the Activity in the data set with Mus musculus [7] is 67.3%; with Mus musculus [8], 0.087 U/mg; in the data set with Mus musculus [9] it was 44.8 U/mg.
In the case of `CCN(CC)C(=O)Oc1ccc(-c2cc(=O)c3c(O)c(OC)c(OC)cc3o2)cc1`, the results for the 50% inhibitory concentration (IC50) (at Acetylcholinesterase; in [1]) were 570 nM and 22.6 µM, respectively. Moreover, in the data set filed under Rattus norvegicus, the Ratio IC50 came to 39.7. Besides, the inhibition entry in data set [10] is “Active”. Besides, the Activity entry in data set [2] is recorded as “Not Active”; in data set [3], “Not Active”; in data set [4], “Not Active”; in data set [5] it was “Not Active”; in [6], 1.3; in the data set with Mus musculus [11] it was “Non-toxic”. Moreover, the Activity entry in the data set with Mus musculus [12] is “Non-toxic”; in the data set filed under Mus musculus [13] it was “Dose-dependent effect”; with Mus musculus [14], 68.7%; in the data set filed under Mus musculus [15], “Dose-dependent effect”; in the data set with Mus musculus [16], 0.11 U/mg; in the data set filed under Mus musculus [17], “Dose-dependent effect”. Also, the Activity in the data set on Mus musculus [18] was 45.2 U/mg. Also, the viability at 10 µM in the data set with PC-12 was 78.5%.
